Results: ChEMBL document CHEMBL3396963, “Scaffold hopping: exploration of acetanilide-containing uracil analogues as potential NNRTIs” (Bioorg Med Chem, 2015)
Activity calls are given as the source filed them. The rule behind the calls is not given here.

How the values were obtained:
[1] = Cytotoxicity against human MT4 cells assessed as reduction in cell viability; type: cell-based
[2] = target: T1, Human immunodeficiency virus type 1 reverse transcriptase (Human immunodeficiency virus 1, UniProt Q72547); experiment: Inhibition of HIV1 ribonuclease H pre-incubated with compound before enzyme addition using RNA/DNA heteroduplex and measured after 60 mins by picogreen based spectrofluorometry
[3] = Selectivity index, ratio of CC50 for human MT4 cells to EC50 for HIV1 3B infected in human MT4 cells; type: toxicity, cell-based; details: HIV-1 3B infected MT4 cells, read-out: Ratio CC50/EC50
[4] = target: T1, Human immunodeficiency virus type 1 reverse transcriptase; experiment: Inhibition of HIV1 recombinant wild type reverse transcriptase p66/p51 pre-incubated with compound before enzyme addition using poly(rA) template and measured after 40 mins by picogreen based spectrofluorometry
[5] = tested on: Human immunodeficiency virus 1; experiment: Antiviral activity against HIV1 3B infected in human MT4 cells assessed as inhibition of virus-induced cytopathogenic effect; type: functional, organism-based; details: Human immunodeficiency virus 1, 3B
[6] = tested on: Human immunodeficiency virus 1; experiment: Antiviral activity against HIV1 3B infected in human MT4 cells exposed to MT4 cell CC50 level of compound added after 1 to 25 hrs post virus infection following 1 hr virus adsorption period assessed as assessed as inhibition of virus-induced cytopathogenic effect; type: functional, organism-based
[7] = tested on: Human immunodeficiency virus 1; experiment: Antiviral activity against HIV1 3B expressing reverse transcriptase K103N/Y181C mutant infected in human MT4 cells assessed as inhibition of virus-induced cytopathogenic effect; type: functional, organism-based
[8] = tested on: Human immunodeficiency virus 1; experiment: Antiviral activity against HIV1 3B infected in human MT4 cells exposed to MT4 cell CC50 level of compound added after 1 to 25 hrs post virus infection following 1 hr virus adsorption period assessed as inhibition of virus production measured at 31 hrs post infection by p24 ELISA method; type: functional, organism-based
[9] = target: Human immunodeficiency virus type 1 reverse transcriptase (Human immunodeficiency virus 1, UniProt Q72547, K103N/Y181C); experiment: Inhibition of HIV1 reverse transcriptase K103N/Y181C mutant using radioactively-labeled […] substrate and activated DNA as template-primer complex
[10] = target: Human immunodeficiency virus type 1 reverse transcriptase (Human immunodeficiency virus 1, UniProt Q72547, L100I); experiment: Inhibition of HIV1 reverse transcriptase L100I mutant using radioactively-labeled […] substrate and activated DNA as template-primer complex
[11] = target: Human immunodeficiency virus type 1 reverse transcriptase (Human immunodeficiency virus 1, UniProt Q72547, Y181C); experiment: Inhibition of HIV1 reverse transcriptase Y181C mutant using radioactively-labeled […] substrate and activated DNA as template-primer complex
[12] = target: Human immunodeficiency virus type 1 reverse transcriptase (Human immunodeficiency virus 1, UniProt Q72547, K103N); experiment: Inhibition of HIV1 reverse transcriptase K103N mutant using radioactively-labeled […] substrate and activated DNA as template-primer complex
[13] = target: Human immunodeficiency virus type 1 reverse transcriptase (Human immunodeficiency virus 1, UniProt Q72547, V106A); experiment: Inhibition of HIV1 reverse transcriptase V106A mutant using radioactively-labeled […] substrate and activated DNA as template-primer complex
[14] = target: Human immunodeficiency virus type 1 reverse transcriptase (Human immunodeficiency virus 1, UniProt Q72547, G190A); experiment: Inhibition of HIV1 reverse transcriptase G190A mutant using radioactively-labeled […] substrate and activated DNA as template-primer complex

Row | Ki [4] [µM] | SMILES | CC50 [1] [µM] | IC50 [2] | selectivity ratio [3] | IC50 [4] [µM] | EC50 [5] [µM] | inhibition [6] | inhibition [7] | inhibition [8] | Ki [9] [µM] | IC50 ([2]; read-out: IC50) [µM] | Ki [10] [µM] | Ki [11] [µM] | Ki [12] [µM] | Ki [13] [µM] | Ki [14] [µM]
1 | – | O=C(Cn1ccc(=O)n(Cc2cccc3ccccc23)c1=O)Nc1ccccc1Cl | 207 | Not Active | 26 | 44.5 | 7.94 | inactive | inactive | inactive | – | – | – | – | – | – | –
2 | – | Cc1cc(C)cc(Cn2c(=O)ccn(CC(=O)Nc3ccc(Cl)cc3)c2=O)c1 | 77.5 | Not Active | 11 | 62.9 | 7.29 | inactive | inactive | inactive | – | – | – | – | – | – | –
3 | > 100 | Cc1cn(Cc2ccccc2OCC(=O)Nc2ccccc2Cl)c(=O)n(C)c1=O | 14.8 | – | < 1 | – | > 14.8 | – | – | – | – | – | – | – | – | – | –
4 | > 100 | Cn1c(=O)c(F)cn(Cc2ccccc2OCC(=O)Nc2ccccc2Cl)c1=O | 30.3 | – | < 1 | – | > 30.3 | – | – | – | – | – | – | – | – | – | –
5 | – | Cc1cc(C)cc(Cn2c(=O)ccn(CC(=O)NCc3ccccc3)c2=O)c1 | 191 | Not Active | < 1 | 194 | > 191 | inactive | inactive | inactive | – | – | – | – | – | – | –
6 | – | Cc1cc(C)cc(Cn2c(=O)ccn(CC(=O)Nc3ccccc3C)c2=O)c1 | 292 | Not Active | 38 | 68.8 | 7.68 | inactive | inactive | inactive | – | – | – | – | – | – | –
7 | – | Cc1cc(C)cc(Cn2c(=O)ccn(CC(=O)Nc3ccccc3Cl)c2=O)c1 | 28.5 | Not Active | 17 | 15.7 | 1.71 | inactive | inactive | inactive | – | – | – | – | – | – | –
8 | – | COc1ccccc1NC(=O)Cn1ccc(=O)n(Cc2cc(C)cc(C)c2)c1=O | 227 | Not Active | 16 | 211 | 14.5 | inactive | inactive | inactive | – | – | – | – | – | – | –
9 | > 100 | Cn1c(=O)ccn(Cc2ccccc2OCC(=O)Nc2cccc(Cl)c2)c1=O | 288 | – | < 1 | – | > 288 | – | – | – | – | – | – | – | – | – | –
10 | – | O=C1Nc2ccc(Cl)cc2[C@@](C#CC2CC2)(C(F)(F)F)O1 [EFAVIRENZ] | > 6 | – | – | – | – | – | – | – | – | – | – | – | – | – | –
11 | – | Cc1cc(C)cc(Cn2c(=O)ccn(CC(=O)Nc3ccccc3)c2=O)c1 | 242 | Not Active | 25 | 79.3 | 9.68 | inactive | inactive | inactive | – | – | – | – | – | – | –
12 | > 100 | Cn1c(=O)ccn(Cc2ccccc2OCC(=O)Nc2ccccc2Cl)c1=O | 141 | – | < 1 | – | > 141 | – | – | – | – | – | – | – | – | – | –
13 | – | Cc1cc(C)cc(Cn2c(=O)ccn(CC(=O)Nc3cccc(Cl)c3)c2=O)c1 | 167 | Not Active | 6 | 114 | 29.5 | inactive | inactive | inactive | – | – | – | – | – | – | –
14 | > 100 | Cn1c(=O)ccn(Cc2ccccc2OCC(=O)Nc2ccccc2)c1=O | 153 | – | < 1 | – | > 153 | – | – | – | – | – | – | – | – | – | –
15 | > 100 | Cn1c(=O)ccn(Cc2ccccc2OCC(=O)Nc2ccc(Cl)cc2)c1=O | 100 | – | < 1 | – | > 100 | – | – | – | – | – | – | – | – | – | –
16 | > 100 | C=CCn1c(=O)ccn(Cc2ccccc2OCC(=O)Nc2ccccc2Cl)c1=O | 30.6 | – | < 1 | – | > 30.6 | – | – | – | – | – | – | – | – | – | –
17 | – | Cc1cc(Br)cc(Cn2c(=O)ccn(CC(=O)Nc3ccccc3)c2=O)c1 | 33.1 | Not Active | 17 | 12.1 | 2.01 | inactive | inactive | inactive | – | – | – | – | – | – | –
18 | – | Cc1cc(C)cc(Cn2c(=O)ccn(CC(=O)Nc3cccc(C)c3C)c2=O)c1 | 276 | Not Active | 8 | > 300 | 35.8 | inactive | inactive | inactive | – | – | – | – | – | – | –
19 | > 100 | Cn1c(=O)ccn(Cc2ccccc2OCC(=O)Nc2cc(Cl)ccc2Cl)c1=O | 29.5 | – | < 1 | – | > 29.5 | – | – | – | – | – | – | – | – | – | –
20 | > 100 | CCCn1c(=O)ccn(Cc2ccccc2OCC(=O)Nc2ccccc2Cl)c1=O | 25.4 | – | < 1 | – | > 25.4 | – | – | – | – | – | – | – | – | – | –
21 | > 100 | Cn1c(=O)c(Cl)cn(Cc2ccccc2OCC(=O)Nc2ccccc2Cl)c1=O | 9.37 | – | < 1 | – | > 9.37 | – | – | – | – | – | – | – | – | – | –
22 | – | Cc1ccnc2c1NC(=O)c1cccnc1N2C1CC1 [NEVIRAPINE] | > 15 | – | – | – | – | – | – | – | – | – | – | – | – | – | –
23 | > 100 | Cc1ccccc1NC(=O)COc1ccccc1Cn1ccc(=O)n(C)c1=O | 152 | – | < 1 | – | > 152 | – | – | – | – | – | – | – | – | – | –

Row | SMILES | Ki [4] [µM] | CC50 [1] [µM] | IC50 [2] | selectivity ratio [3] | IC50 [4] [µM] | EC50 [5] [µM] | inhibition [6] | inhibition [7] | inhibition [8] | Ki [9] [µM] | IC50 ([2]; read-out: IC50) [µM] | Ki [10] [µM] | Ki [11] [µM] | Ki [12] [µM] | Ki [13] [µM] | Ki [14] [µM]
24 | O=C(Cn1ccc(=O)n(Cc2cc(Cl)cc(Cl)c2)c1=O)Nc1ccccc1Cl | 4.5 | 31.1 | – | 10 | 12.7 | 3.26 | inactive | inactive | inactive | 69.9 | 149 | 15.9 | 15.4 | 63.3 | 67.6 | 20
